# Reference: PMC5537602, “TRPA1 channel mediates organophosphate-induced delayed neuropathy” (Cell Discovery, 2017)
# Tests used:
# Format in all cases: cell-based
# TRPV4 = target: T1, TRPV4 (Homo sapiens, UniProt Q9HBA0); experiment: Calcium fluorescence signal, HEK293 cells overexpressing TRPV4; settings: 10 μM
# T1 construct: expressed in transfected cells; host or cells: HEK293
# Experimental: (§1) Figure S3. Specificity of malathion for TRPA1 channels. (A-F) Time course of the fluorescence signal induced by malathion (Mala, 10 μM) and the indicated positive agonists (10 μM) in HEK293 cells overexpressing TRPV1 (A), TRPV3 (B), TRPV4 (C), TRPM8 (D), TRPC4 (E) and TRPC5 (F) channels. The fluorescence signals are scaled as F/F0. EC indicates external solution. […]
# (§2) cells for each tested TRP channel. All bars are presented as the mean ± SEM. […]
# TRPV3 = target: T2, TRPV3 (Homo sapiens, UniProt Q8NET8); experiment: Calcium fluorescence signal, HEK293 cells overexpressing TRPV3; settings: 10 μM
# T2 construct: expressed in transfected cells; host or cells: HEK293
# T2 sequence (Q8NET8 1-790): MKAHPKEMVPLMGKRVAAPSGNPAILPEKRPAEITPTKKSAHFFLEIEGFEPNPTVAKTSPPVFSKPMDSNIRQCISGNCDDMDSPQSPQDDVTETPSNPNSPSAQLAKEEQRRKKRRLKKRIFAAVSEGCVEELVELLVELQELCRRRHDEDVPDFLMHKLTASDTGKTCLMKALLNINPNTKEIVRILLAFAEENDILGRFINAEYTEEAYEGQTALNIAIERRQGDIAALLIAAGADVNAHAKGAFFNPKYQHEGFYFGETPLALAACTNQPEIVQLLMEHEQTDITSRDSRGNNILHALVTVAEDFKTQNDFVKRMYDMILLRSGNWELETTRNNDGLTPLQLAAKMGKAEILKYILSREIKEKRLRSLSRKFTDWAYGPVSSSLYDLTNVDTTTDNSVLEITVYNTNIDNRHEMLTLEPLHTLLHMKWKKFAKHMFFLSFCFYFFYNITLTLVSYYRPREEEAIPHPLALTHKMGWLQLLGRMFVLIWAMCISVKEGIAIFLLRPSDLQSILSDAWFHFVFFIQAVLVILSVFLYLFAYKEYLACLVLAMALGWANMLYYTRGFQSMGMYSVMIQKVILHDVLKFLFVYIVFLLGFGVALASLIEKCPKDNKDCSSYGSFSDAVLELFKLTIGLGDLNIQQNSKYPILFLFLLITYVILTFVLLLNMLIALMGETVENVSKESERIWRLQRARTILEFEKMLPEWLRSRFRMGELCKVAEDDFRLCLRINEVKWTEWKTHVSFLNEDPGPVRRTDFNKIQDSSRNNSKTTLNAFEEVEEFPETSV
# Experimental: as §1, §2
# mTRPA1 = mTRPA1 (Mus musculus, UniProt Q8BLA8); experiment: FDSS Ca2+-influx assay, HEK293 cells stably expressing mTRPA1; set-up: expressed in transfected cells; settings: HEK293 cells, change in [Ca2+]i; read-out: EC50, activation of mTRPA1
# Experimental: Ca^2+-influx assays were carried out using HEK293 cells stably expressing mTRPA1 channels with an FDSS screening system (Hamamatsu, Japan). Before the start of the assay, HEK293-mTRPA1 cells were plated onto poly-D-Lysine (40 μg ml^−1) coated 96-well black clear bottom plate with the cell density of 300 000 cells per milliliter in DMEM supplemented with 10% (vol/vol) fetal bovine serum, 200 μg ml^−1 Hygromycin B, 15 μg ml^−1 Blasticidin S HCL and 0.3 μg ml^−1 doxycycline, which could induce the expression of mTRPA1. The 96-well plate was then put in sterile incubator overnight. The following day, Ca^2+ influx dye Fluo-4/AM stock was diluted to 2 μM with bath solution, and added (50 μl per well) in place of the culture medium. The plate was then incubated to load the Fluo-4/AM into cells for 60 min at 37 °C in dark environment. During the incubation, we prepared the compound plate (96-well) and the margin of plate was set as blank control due to the fringing effect. At the end of dye loading period, the remnant dye was removed using bath solution to wash the 96-well cell plate twice and then add 80 μl bath solution per well.
# TRPC5 = target: T3, TRPC5 (Homo sapiens, UniProt Q9UL62); experiment: Calcium fluorescence signal, HEK293 cells overexpressing TRPC5; settings: 10 μM
# T3 construct: expressed in transfected cells; host or cells: HEK293
# T3 sequence (Q9UL62 1-973): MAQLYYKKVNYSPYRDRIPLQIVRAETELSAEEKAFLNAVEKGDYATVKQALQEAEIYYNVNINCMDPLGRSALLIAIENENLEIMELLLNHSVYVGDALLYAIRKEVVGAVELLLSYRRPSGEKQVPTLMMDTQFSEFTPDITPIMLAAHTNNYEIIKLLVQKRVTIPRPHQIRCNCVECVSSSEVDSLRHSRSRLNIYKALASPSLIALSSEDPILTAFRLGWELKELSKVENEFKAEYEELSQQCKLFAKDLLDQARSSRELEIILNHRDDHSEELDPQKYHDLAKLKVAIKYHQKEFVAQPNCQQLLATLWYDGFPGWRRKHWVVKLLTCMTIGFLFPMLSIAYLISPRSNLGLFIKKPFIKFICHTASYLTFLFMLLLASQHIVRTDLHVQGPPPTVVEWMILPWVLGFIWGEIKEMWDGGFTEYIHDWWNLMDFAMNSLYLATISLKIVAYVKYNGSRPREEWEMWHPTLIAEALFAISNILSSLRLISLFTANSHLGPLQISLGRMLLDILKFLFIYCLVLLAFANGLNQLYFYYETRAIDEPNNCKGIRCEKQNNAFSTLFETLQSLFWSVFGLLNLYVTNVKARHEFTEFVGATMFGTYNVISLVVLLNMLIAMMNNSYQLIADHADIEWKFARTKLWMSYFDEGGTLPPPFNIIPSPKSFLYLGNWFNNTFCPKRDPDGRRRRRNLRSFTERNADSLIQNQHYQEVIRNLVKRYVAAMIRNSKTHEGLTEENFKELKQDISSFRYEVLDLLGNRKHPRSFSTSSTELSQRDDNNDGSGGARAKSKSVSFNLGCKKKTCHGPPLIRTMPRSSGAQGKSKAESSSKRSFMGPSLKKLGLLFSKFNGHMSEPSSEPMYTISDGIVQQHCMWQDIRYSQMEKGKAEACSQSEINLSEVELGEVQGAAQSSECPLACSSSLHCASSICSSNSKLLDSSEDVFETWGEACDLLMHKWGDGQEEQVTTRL
# Experimental: as §1, §2
# T1 sequence (Q9HBA0 whole entry, species assumed): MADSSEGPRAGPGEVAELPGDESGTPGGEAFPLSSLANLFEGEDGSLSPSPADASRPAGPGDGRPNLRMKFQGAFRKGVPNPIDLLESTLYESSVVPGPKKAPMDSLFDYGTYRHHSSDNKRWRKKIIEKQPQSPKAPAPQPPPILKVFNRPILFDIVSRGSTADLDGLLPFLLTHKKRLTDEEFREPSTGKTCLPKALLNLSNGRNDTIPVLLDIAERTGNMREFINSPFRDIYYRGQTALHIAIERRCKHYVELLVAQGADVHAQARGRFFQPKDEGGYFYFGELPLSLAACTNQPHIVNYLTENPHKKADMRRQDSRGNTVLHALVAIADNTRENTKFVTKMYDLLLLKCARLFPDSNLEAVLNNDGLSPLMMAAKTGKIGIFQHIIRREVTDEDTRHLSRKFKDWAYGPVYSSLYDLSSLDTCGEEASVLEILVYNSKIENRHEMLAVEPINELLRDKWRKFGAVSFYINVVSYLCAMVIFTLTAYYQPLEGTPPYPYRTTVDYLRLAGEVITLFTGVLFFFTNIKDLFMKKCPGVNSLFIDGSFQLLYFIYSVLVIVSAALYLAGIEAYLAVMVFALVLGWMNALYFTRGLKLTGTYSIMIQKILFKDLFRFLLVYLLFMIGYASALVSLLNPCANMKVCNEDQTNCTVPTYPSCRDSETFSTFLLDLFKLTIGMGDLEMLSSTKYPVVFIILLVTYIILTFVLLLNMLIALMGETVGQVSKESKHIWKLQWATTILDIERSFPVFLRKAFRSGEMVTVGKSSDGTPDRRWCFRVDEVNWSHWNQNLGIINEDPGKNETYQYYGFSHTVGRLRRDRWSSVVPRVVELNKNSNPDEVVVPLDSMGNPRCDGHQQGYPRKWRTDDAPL
# mTRPA1, sequence (Q8BLA8 whole entry): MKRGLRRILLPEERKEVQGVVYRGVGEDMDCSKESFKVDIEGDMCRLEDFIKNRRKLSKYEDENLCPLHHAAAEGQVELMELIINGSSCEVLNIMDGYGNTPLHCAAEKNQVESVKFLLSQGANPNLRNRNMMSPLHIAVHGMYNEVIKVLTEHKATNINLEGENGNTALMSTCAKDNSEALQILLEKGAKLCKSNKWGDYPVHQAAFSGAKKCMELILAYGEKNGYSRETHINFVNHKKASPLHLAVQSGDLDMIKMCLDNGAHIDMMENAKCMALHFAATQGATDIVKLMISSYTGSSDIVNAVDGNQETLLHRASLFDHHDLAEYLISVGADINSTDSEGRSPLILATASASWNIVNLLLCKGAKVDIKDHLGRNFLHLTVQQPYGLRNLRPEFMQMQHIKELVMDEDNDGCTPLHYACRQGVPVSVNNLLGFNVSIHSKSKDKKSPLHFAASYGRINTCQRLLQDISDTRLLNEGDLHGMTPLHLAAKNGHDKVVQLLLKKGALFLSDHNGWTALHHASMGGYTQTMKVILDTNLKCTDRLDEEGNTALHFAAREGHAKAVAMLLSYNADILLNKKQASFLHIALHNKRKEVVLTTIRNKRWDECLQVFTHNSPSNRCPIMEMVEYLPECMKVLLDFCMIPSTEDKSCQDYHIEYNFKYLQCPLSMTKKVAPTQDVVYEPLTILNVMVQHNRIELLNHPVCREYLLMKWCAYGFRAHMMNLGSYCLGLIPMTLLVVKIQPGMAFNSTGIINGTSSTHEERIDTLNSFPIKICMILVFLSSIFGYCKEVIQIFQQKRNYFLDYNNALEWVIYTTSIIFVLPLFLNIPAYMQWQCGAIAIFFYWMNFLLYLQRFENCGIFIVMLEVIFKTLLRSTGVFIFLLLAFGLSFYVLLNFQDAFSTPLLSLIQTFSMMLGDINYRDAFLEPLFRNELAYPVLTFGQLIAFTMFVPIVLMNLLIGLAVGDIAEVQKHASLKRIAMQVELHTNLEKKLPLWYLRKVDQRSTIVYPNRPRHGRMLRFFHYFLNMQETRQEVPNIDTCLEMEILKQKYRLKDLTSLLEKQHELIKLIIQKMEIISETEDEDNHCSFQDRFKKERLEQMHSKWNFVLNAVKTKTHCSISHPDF
smiles,measurement,setting,value
"CCOC(=O)CC(SP(=S)(OC)OC)C(=O)OCC (stereo not drawn) [malathion, S-[1,2-bis (ethoxycarbonyl)ethyl] O, O-dimethyl phosphorodithioate]",activation of TRPV4,TRPV4,could not activate
same,activation of TRPV3,TRPV3,could not activate
same,EC50,mTRPA1,14.2 ± 1.02 µM
same,activation of TRPC5,TRPC5,could not activate
